Reference: PMC5976936 (2018)

How the values were obtained:
[1] = tested on: G4_1-4 (DNA, G4) CCGGGGCGGGCCGGGGGCGGGGTC; experiment: ECD thermal melting; conditions: KCl concentration not stated for this experiment; 50 mM Tris-HCl pH 7.4; 10 µM TMPyP4, 5 µM DNA
[2] = tested on: G4mod1 (DNA, G4, 5-hydroxymethylcytosine at 7) CCGGGGCGGGCCGGGGGCGGGGTC; experiment: ECD thermal melting; conditions: KCl concentration not stated for this experiment; 50 mM Tris-HCl pH 7.4; 10 µM TMPyP4, 5 µM DNA

`C[n+]1ccc(-c2c3nc(c(-c4cc[n+](C)cc4)c4ccc([nH]4)c(-c4cc[n+](C)cc4)c4nc(c(-c5cc[n+](C)cc5)c5ccc2[nH]5)C=C4)C=C3)cc1` gave a ΔTM [1] of 12 °C and a ΔTM [2] of 12 °C.
